Data: article PMC7594722, “Investigation of pesticides on honey bee carbonic anhydrase inhibition” (Journal of Enzyme Inhibition and Medicinal Chemistry, 2020)
Like-named read-outs stand apart in the source and are kept apart here.

What was measured:
[1] = biological target: AmCA (Apis mellifera spermatheca carbonic anhydrase); conditions: AmCA inhibition data from previous study; cited from earlier work
[2] = test system: honey bees and bumblebees; conditions: cited from earlier work
[3] = biological target: AmCA (Apis mellifera spermatheca carbonic anhydrase); test: AmCA inhibition, colorimetric CO2 hydrase assay; format: biochemical; conditions: AmCA from honey bee spermatheca, triplicate, enzyme concentration 8.9 nM
Protocol: Bee spermatheca samples were washed three times with 50 mM Tris/Sulphate (pH 7.8). Spermatecha samples taken from 200 bees were combined and homogenised with liquid nitrogen, then placed in the same buffer and centrifuged at 4 °C, 15,000 g for 30 min. The precipitate portion was discarded and the supernatant portion was separated and used in subsequent studies.
The enzyme was purified using Sepharose-4B-sulfanilamide affinity gel prepared by our group. Aniline was used as a spacer arm in the chromatography column. The column was then equilibrated with 25 mM Tris-HCl/0.1M Na2SO4 (pH 8.7) and the gel was washed with 25 mM Tris-HCl/22 mM Na2SO4 (pH 8.7). Finally, elution was performed with 1 M NaCl/25 mM Na2HPO4 (pH 6.3). The temperature was kept at 4 °C during all experiments.
The effects of methomyl, oxamyl, deltamethrin, dichlorodiphenyltrichloroethane ([…]), cypermethrin and diazinon on AmCA activities were assayed colorimetrically using the CO2 hydrase assay, in triplicate at each concentration of inhibitor (ranging from 1 nM to 10 mM). Control enzyme activity was taken as 100%. An activity % versus inhibitor graph was drawn for all pesticides (Microsoft Office 2000, Excel). Pesticide concentrations that caused 50% inhibition (IC50) of the enzyme activity were thus obtained graphically using a regression software. The enzyme concentration in the assay system was 8.9 nM.

[4] = test system: honey bees and bumblebees; conditions: cited from earlier work; remark: listed apart in the source

SMILES	IC50 [1]	topical lethal dose (LD50) [2]	IC50 [3]	oral dose rates (oral LD50) [4]
CNC(=O)Oc1cccc2c1OC(C)(C)C2 [Carbonfuran, carbofuran]	8.7 nM			
CC1(C)[C@H](C(=O)O[C@H](C#N)c2cccc(Oc3ccccc3)c2)[C@@H]1C=C(Br)Br [Deltamethrin, deltamethrin]		0.02 μg/bee	2.8 ± 0.1 nM	
CCOP(=S)(OCC)Oc1cc(C)nc(C(C)C)n1 [Diazinon, diazinon]		0.38 μg/bee	38.5 ± 1.2 nM	0.21 μg/bee
CC1(C)C(C=C(Cl)Cl)C1C(=O)OC(C#N)c1cccc(Oc2ccccc2)c1 (stereo not drawn) [Cypermethrin, cypermethrin]		0.03 μg/bee	7.8 ± 0.3 nM	0.06 μg/bee
CNC(=O)Oc1ccccc1OC(C)C [Propoxur, propoxur]	32.1 nM			
CNC(=O)ON=C(C)SC [Methomyl, methomyl]		0.49 μg/bee	2.3 ± 0.1 nM	3.38 μg/bee
CC(C)(C)C(O)(CCc1ccc(Cl)cc1)Cn1cncn1 (stereo not drawn) [Tebuconazole, tebuconazole]	3 nM			
CCNc1nc(Cl)nc(NC(C)C)n1 [Atrazine, atrazine]	16.5 nM			
CNC(=O)Oc1cccc2ccccc12 [Carbaryl, carbaryl]	3.1 nM			
CCNc1nc(Cl)nc(NCC)n1 [Simazin, simazine]	27.3 nM			
CNC(=O)O/N=C(\SC)C(=O)N(C)C [Oxamyl, oxamyl]			2.5 ± 0.1 nM	
